Laboratory results taken from patent publication US8470785B2, “Method for treating ocular cancer” (St. Jude Children's Research Hospital, priority 2006, dated 2013).
Where two headings read alike, the source gives them in different places. Ends that are not written are not given here.

What was measured:
[1] = target: HDM2 (Homo sapiens, UniProt Q00987); conditions: literature; cited from earlier work
[2] = tested on: p53^LSL MEFs null for Mdm2 and/or MdmX; assay: MTT growth/viability assay in p53^LSL MEFs
[3] = tested on: MDM2, p53 and p21 levels; assay: Immunoblot analysis of p53 pathway induction; conditions: 4 μM nutlin-3; Weril, Y79, primary retinoblasts; all cells except 911 cells
[4] = tested on: Y79 cells; assay: Retinoblastoma cell viability, Y79 cells; format: cell-based, human; conditions: 72 hours, total racemic drug; read-out: LC50 (the source's name)
Description: These studies were extended to retinoblastoma cells. […] MDM2, p53 and p21 levels were induced in all cells except for the 911 cells in which p53 was inactivated by the large E1B protein.

[5] = tested on: Mdm2^Lox/Lox MEFs; assay: Clonal analysis in Mdm2-deficient MEFs (Table 8)
[6] = tested on: retinoblastoma cells; conditions: for p53 response: topotecan at LC50 for 1 hour, nutlin-3 treatment
[7] = tested on: Weril cells
[8] = tested on: SJRBL8 retinoblastoma cell line; assay: Retinoblastoma cell viability, p53-deficient SJRBL8 cells; conditions: 10 μM to 1 nM, 72 hours
[9] = tested on: Weril and Y79 cells; conditions: lentivirus control-infected cells
[10] = cited from earlier work
[11] = target: MDM2 (amino acid residues 1-188) (Homo sapiens, UniProt Q00987); assay: Fluorescence polarization p53 peptide binding/competition assay, MDM2
Chain of MDM2 (amino acid residues 1-188) (Q00987 1-188): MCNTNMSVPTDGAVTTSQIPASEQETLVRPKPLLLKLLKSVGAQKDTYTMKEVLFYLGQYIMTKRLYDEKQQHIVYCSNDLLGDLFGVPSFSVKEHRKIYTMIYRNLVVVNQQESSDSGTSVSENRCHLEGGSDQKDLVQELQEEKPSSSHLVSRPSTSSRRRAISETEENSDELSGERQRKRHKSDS

[12] = target: T1, MDMX (amino acid residues 1-185) (Homo sapiens, UniProt O15151); assay: Fluorescence polarization p53 peptide binding/competition assay, MDMX
T1 sequence (O15151 1-185): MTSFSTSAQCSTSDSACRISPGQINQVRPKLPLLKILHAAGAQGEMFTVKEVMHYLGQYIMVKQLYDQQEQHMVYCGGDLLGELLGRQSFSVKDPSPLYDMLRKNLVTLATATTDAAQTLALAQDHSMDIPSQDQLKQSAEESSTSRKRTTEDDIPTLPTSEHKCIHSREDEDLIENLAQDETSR

Chain of HDM2 (Q00987 whole entry): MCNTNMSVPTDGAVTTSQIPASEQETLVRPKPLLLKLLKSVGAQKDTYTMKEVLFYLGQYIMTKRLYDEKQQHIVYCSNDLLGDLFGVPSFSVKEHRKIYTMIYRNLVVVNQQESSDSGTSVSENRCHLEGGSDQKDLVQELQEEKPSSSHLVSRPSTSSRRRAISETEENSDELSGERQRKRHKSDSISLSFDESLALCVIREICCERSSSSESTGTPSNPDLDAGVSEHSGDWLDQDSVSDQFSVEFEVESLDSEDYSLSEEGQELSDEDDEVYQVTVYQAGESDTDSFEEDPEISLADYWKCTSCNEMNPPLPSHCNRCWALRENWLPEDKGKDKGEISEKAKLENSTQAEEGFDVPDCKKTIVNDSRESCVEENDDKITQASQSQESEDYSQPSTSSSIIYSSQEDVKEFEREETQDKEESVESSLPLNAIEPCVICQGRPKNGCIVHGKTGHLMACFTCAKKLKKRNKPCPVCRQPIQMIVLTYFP

## O=C(O)COc1ccc(C(=O)C=Cc2ccc(Cl)c(Cl)c2)cc1 [Trial B-1, {4-[3-(3,4-dichloro-phenyl)-acryloyl]-phenoxy}-acetic acid]
[1]
  affinity / inhibition of p53/HDM2 complex: high micromolar affinity

## COc1ccc(C2=N[C@@H](c3ccc(Cl)cc3)[C@@H](c3ccc(Cl)cc3)N2C(=O)N2CCNC(=O)C2)c(OC(C)C)c1 [nutlin-3]
[2]; MdmX^+/− MEFs after Cre
  sensitivity of MEFs to nutlin-3: sensitive
[2]; MdmX^−/− MEFs after Cre
  sensitivity of MEFs to nutlin-3: insensitive
[3]
  MDM2, p53 and p21 levels: induced
[4]
  CC50: 2000 nM
[5]; 1.25 μM or 5 μM racemic nutlin-3
  MdmX rescue of the loss of Mdm2 in MEFs: blocked
[5]; GFP virus, 1.25 μM racemic nutlin-3, Day 2
  number of cells per clone: 1.0 ± 0^
[5]; GFP virus, 1.25 μM racemic nutlin-3, Day 3
  number of cells per clone: 1.5 ± 0.4
[5]; GFP virus, 1.25 μM racemic nutlin-3, Day 4
  number of cells per clone: 2.1 ± 0.7
[5]; GFP virus, 5.0 μM racemic nutlin-3, Day 2
  number of cells per clone: 1.1 ± 0.2
[5]; GFP virus, 5.0 μM racemic nutlin-3, Day 3
  number of cells per clone: 1.5 ± 0.4
[5]; Mdm2-GFP virus, 1.25 μM racemic nutlin-3, Day 2
  number of cells per clone: 3.1 ± 1.5
[5]; Mdm2-GFP virus, 1.25 μM racemic nutlin-3, Day 3
  number of cells per clone: 6.6 ± 5.2
[5]; Mdm2-GFP virus, 1.25 μM racemic nutlin-3, Day 4
  number of cells per clone: 10.0 ± 7.4
[5]; Mdm2-GFP virus, 1.25 μM racemic nutlin-3, Day 5
  number of cells per clone: 12.9 ± 8.1
[5]; Mdm2-GFP virus, 1.25 μM racemic nutlin-3, Day 6
  number of cells per clone: 14.5 ± 9.3
[5]; Mdm2-GFP virus, 5.0 μM racemic nutlin-3, Day 2
  number of cells per clone: 3.0 ± 2.2
[5]; Mdm2-GFP virus, 5.0 μM racemic nutlin-3, Day 3
  number of cells per clone: 3.3 ± 1.4
[5]; Mdm2-GFP virus, 5.0 μM racemic nutlin-3, Day 4
  number of cells per clone: 3.9 ± 2.1
[5]; Mdm2-GFP virus, 5.0 μM racemic nutlin-3, Day 5
  number of cells per clone: 3.1 ± 1.7
[5]; Mdm2-GFP virus, 5.0 μM racemic nutlin-3, Day 6
  number of cells per clone: 2.8 ± 2.0
[5]; MdmX-GFP virus, 1.25 μM racemic nutlin-3, Day 2
  number of cells per clone: 1.1 ± 0.2
[5]; MdmX-GFP virus, 1.25 μM racemic nutlin-3, Day 3
  number of cells per clone: 1.9 ± 0.6
[5]; MdmX-GFP virus, 1.25 μM racemic nutlin-3, Day 4
  number of cells per clone: 2.8 ± 1.7
[5]; MdmX-GFP virus, 1.25 μM racemic nutlin-3, Day 5
  number of cells per clone: 3.4 ± 2.2
[5]; MdmX-GFP virus, 1.25 μM racemic nutlin-3, Day 6
  number of cells per clone: 2.1 ± 1.9
[5]; MdmX-GFP virus, 5.0 μM racemic nutlin-3, Day 2
  number of cells per clone: 1.2 ± 0.4
[5]; MdmX-GFP virus, 5.0 μM racemic nutlin-3, Day 3
  number of cells per clone: 1.1 ± 0.1
[5]; MdmX-GFP virus, 5.0 μM racemic nutlin-3, Day 4
  number of cells per clone: 1.3 ± 0.2
[5]; MdmX-GFP virus, 5.0 μM racemic nutlin-3, Day 5
  number of cells per clone: 1.0 ± 0^
[6]; 10 nM
  effect of nutlin-3 alone: ineffective alone
[6]
  p53 response: induced a p53 response
[7]; Weril cells, MDMX cDNA
  response to nutlin-3 with MDMX cDNA: more resistant
[7]; Weril cells, MDMX siRNA
  response to nutlin-3 with MDMX siRNA: sensitized
[7]; read-out: LC50 (50% lethal concentration), 72 hours, total racemic drug
  CC50: 700 nM
[7]; read-out: LC50, Weril cells transfected with control siRNA
  CC50: 600 nM
[7]; read-out: LC50, Weril cells transfected with p53 siRNA
  CC50: 10000 nM
[8]
  viability: no decrease in viability at any concentration tested
[9]
  proliferation of control-infected cells: inhibited the proliferation

## COc1ccc(C2=N[C@@H](c3ccc(Cl)cc3)[C@@H](c3ccc(Cl)cc3)N2C(=O)N2CCNC(=O)C2)c(OC(C)C)c1 [nutlin-3a]
[10]; oral and intravenous formulations
  penetration into the vitreous: poor penetration into the vitreous

## CC[C@@]1(O)C(=O)OCc2c1cc1n(c2=O)Cc2cc3c(CN(C)C)c(O)ccc3nc2-1 [topotecan, Topotecan]
[6]
  p53 response: induced a p53 response
[10]; systemic administration, murine models of retinoblastoma
  intraocular penetration: good intraocular penetration

## FMDYWEGL [SEQ ID NO:4]
[1]
  affinity / inhibition of p53/HDM2 complex: micromolar affinity

## MPRFMDYWEGLN [SEQ ID NO:2]
[1]
  affinity / inhibition of p53/HDM2 complex: sub-micromolar affinity
  fold increase in potency compared to wild-type p53-derived peptide (SEQ ID NO:3): 28 fold

## NH2-Gly-Ser-Gly-Ser-Ser-Gln-Glu-Thr-Ala-Ser-Asp-Leu-Ala-Lys-Leu-Ala-Pro-Glu-Asn-OH (H-GSGSSQETASDLAKLAPEN-OH) [p53 mutant]
[11]
  MDM2 binding: no MDM2 or MDMX binding
[12]
  MDMX binding: no MDM2 or MDMX binding

## chlorofusin
[1]
  affinity / inhibition of p53/HDM2 complex: micromolar inhibitor
